Measured values from patent publication US20080318911A1, “20-Cyclopropyl, 26,27-Alkyl/Haloalkyl Vitamin D3 Compounds and Methods of Use Thereof” (BIOXELL S.P.A., priority 2004, published 2008).

Experiments:
[1] = system: RT4; test: Proliferation assay using bladder cancer cell lines: RT4; type: cell-based, human; details: Homo sapiens, RT-4; 72 h culture, CyQuant proliferation assay
Procedure: (§1) Bladder cancer cell lines (T24, RT112, HT1376 and RT4 are human bladder cancer cell lines; NHEK are normal human keratinocytes) were obtained from the European Collection of Cell Cultures (Salisbury, UK). Cells were plated at 3×10^3 per well, in flat bottomed 96-well plates in 100 μl of DMEM medium containing: 5% Fetal Clone 1,50 μg/l gentamicin, 1 mM sodium pyruvate and 1% non-essential amino acids. After culturing for 24 h at 37° C. in 5% CO2, to allow cells to adhere to the plates, VDR ligands (compounds (1)-(14)) were added at concentrations ranging from 100 μM to 0.3 μM in 100 μl of above-mentioned complete medium. After a further 72 h of culture, cell proliferation was measured using a fluorescence-based proliferation assay kit. (CyQuant Cell Proliferation Assay Kit, Molecular Probes, Eugene, Oreg., USA). The IC50 was calculated from the regression curve of the titration data.

[2] = system: IFN-γ production by allogeneic PBMC; test: IFN-γ production in the mixed leukocyte response (MLR); type: cell-based; details: 120 h; MLR of allogeneic PBMC, 5 days, ELISA; read-out: INF-γ IC50
Procedure: Immature dendritic cells (DC) were prepared as described in Romani, N. et al. (Romani, N. et al. (1996) J. Immunol. Meth. 196:137). IFN-γ production by allogeneic T cell activation in the mixed leukocyte response (MLR) was determined as described in Penna, G., et al., J Immunol., 164: 2405-2411 (2000).
Briefly, peripheral blood mononuclear cells (PBMC) were separated from buffy coats by Ficoll gradient and the same number (3×10^5) of allogeneic PBMC from 2 different donors were co-cultured in 96-well flat-bottom plates. The vitamin D3 compounds were added to each of the cultures.

[3] = system: Renin mRNA in As4.1 cells; test: Renin mRNA inhibition in murine juxtaglomerular cell line As4.1; type: cell-based; details: Mus musculus, 24 h, real time PCR normalized versus β-actin, read-out: Renin mRNA inh.As4.1/wt
Procedure: As4.1 cells (80% subconfluent) were treated in complete medium with compounds of the invention at 10^−8, 10^−9 and 10^−10 M for 24 h. Total RNA was extracted using RNeasy Mini kit (Qiagen); treated with DNase I (Qiagen) and Reverse Transcription Reagent (Applied Biosystems) with Random Examers were used for reverse transcription according to the manufacturers' instructions. Real Time PCR analysis was performed in multiplex using commercially available β-actin VIC-conjugated probe (cat. n. 4352341E, Applied Biosystems) and custom designed mRENIN FAM-conjugated probe (Assay by Design, Applied Biosystems; Forward: […]; Reverse: […]; Probe: FAM-[…]-MGB). Reactions were performed in a 25 μL volume containing 12,5 μl 2× Master Mix (Applied Biosystems), 10 ng/reaction/well cDNA, and 2,5 μM each gene-specific primer. An ABI PRISM 7700 analyzer (Applied Biosystems) was used at 50° C. for 2 minutes and 95° C. for 10 minutes, followed by 40 cycles at 95° C. for 15 seconds and 60° C. for 1 minute. Cycle threshold (Ct) values were exported onto Excel worksheets for analysis. Test cDNA results were normalized versus mouse β-actin housekeeping gene. Fold differences in gene expression between the subtracted versus the unsubtracted populations were expressed using the method of 2^−ΔΔCt. (Table 6)

[4] = Determination of Maximum Tolerated Dose (MTD) in mice; details: mouse, in vivo, po; female C57BL/6 mice, p.o. daily for four days; highest dose without hypercalcemia (serum calcium >10.7 mg/dl)
[5] = system: RT112; test: Proliferation assay using bladder cancer cell lines: RT112; type: cell-based, human; details: Homo sapiens, RT-112; 72 h culture, CyQuant proliferation assay
Procedure: as §1

[6] = system: NHEK; test: Proliferation assay: NHEK normal human keratinocytes; type: cell-based; details: 72 h culture, CyQuant proliferation assay
Procedure: as §1

[7] = system: human stromal bladder cells; test: Basal growth of human stromal bladder cells; type: cell-based; details: FIG. 2
Text: The Inventors confirmed the presence of vitamin D receptors (VDRs), as previously reported in the literature, on these cells (see below in FIG. 1).
The maximum tolerated dose (MTD) in rats is also listed for each compound (Table 5).

SMILES	IC50 [1] [nM]	IC50 [2] [nM]	IC50 [3] [nM]	MTD at 4 days [4] [µg/kg]	IC50 [5] [nM]	IC50 [6] [nM]	inhibiting the basal growth of bladder cells [7]
CC(C)(O)C#CCC1(C2=CCC3/C(=C/C=C4/CC(O)C[C@H](O)C4)CCC[C@]23C)CC1 (stereo partly drawn) [Compound 2, 1α,25-Dihydroxy-16-ene-20-cyclopropyl-23,24-yne-19-nor-cholecalciferol]	6300	0.0254	97.2	10	> 30000	–	–
C=C1/C(=C\C=C2/CCC[C@]3(C)C(C4(C/C=C\C(O)(C(F)(F)F)C(F)(F)F)CC4)=CCC23)CC(O)C[C@@H]1F (stereo partly drawn) [Compound 14, 1α-Fluoro-25-hydroxy-16,23Z-diene-20-cyclopropyl-26,27-hexafluoro-cholecalciferol]	3100	0.081	6	1	21000	4000	–
C=C1/C(=C\C=C2/CCC[C@]3(C)C(C4(CCCC(C)(C)O)CC4)=CCC23)CC(O)C[C@@H]1O (stereo partly drawn) [Compound 10, 1α,25-Dihydroxy-16-ene-20-cyclopropyl-cholecalciferol]	2000	–	26.2	1	27600	5200	effective
C=C1/C(=C\C=C2/CCC[C@]3(C)C(C4(CC#CC(O)(C(F)(F)F)C(F)(F)F)CC4)=CCC23)CC(O)C[C@@H]1O (stereo partly drawn) [Compound 4, 1α,25-Dihydroxy-16-ene-20-cyclopropyl-23,24-yne-26,27 hexafluoro-cholecalciferol]	1700	0.045	2.99	0.3	13800	2000	effective
C=C1/C(=C\C=C2/CCC[C@]3(C)C(C4(CC#CC(O)(C(F)(F)F)C(F)(F)F)CC4)=CCC23)CC(O)C[C@@H]1F (stereo partly drawn) [Compound 12, 1α-Fluoro-25-hydroxy-16-ene-20-cyclopropyl-23-yne-26,27-hexafluoro-cholecalciferol]	3600	0.585	9.73	0.3	16900	1000	–
C=C1/C(=C\C=C2/CCC[C@]3(C)C(C4(CC#CC(C)(C)O)CC4)=CCC23)CC(O)C[C@@H]1O (stereo partly drawn) [Compound 1, 1α,25-Dihydroxy-16-ene-20-cyclopropyl-23,24-yne-cholecalciferol]	10600	0.0336	9.42	10	> 30000	–	–
C=C1/C(=C\C=C2/CCC[C@]3(C)C(C4(C/C=C/C(O)(C(F)(F)F)C(F)(F)F)CC4)=CCC23)CC(O)C[C@@H]1F (stereo partly drawn) [Compound 13, 1α-Fluoro-25-hydroxy-16,23E-diene-20-cyclopropyl-26,27-hexafluoro-cholecalciferol]	3600	0.065	9.5	3	17000	5100	–
C[C@]12CCC/C(=C\C=C3\CC(O)C[C@H](O)C3)C1CC=C2C1(C/C=C/C(O)(C(F)(F)F)C(F)(F)F)CC1 (stereo partly drawn) [Compound 5, 1α,25-Dihydroxy-16-ene-20-cyclopropyl-23,24-E-ene-26,27-hexafluoro-19-nor-cholecalciferol]	4600	0.012	4.4	–	14500	4900	–
C=C1/C(=C\C=C2/CCC[C@]3(C)C(C4(CC#CC(C)(C)O)CC4)=CCC23)CC(O)C[C@@H]1F (stereo partly drawn) [Compound 11, 1α-Fluoro-25-hydroxy-16-ene-23-yne-20-cyclopropyl-cholecalciferol]	16700	0.0164	303	100	> 30000	–	–
C=C1/C(=C\C=C2/CCC[C@]3(C)C(C4(C/C=C/C(O)(C(F)(F)F)C(F)(F)F)CC4)=CCC23)CC(O)C[C@@H]1O (stereo partly drawn) [Compound 6, 1α,25-Dihydroxy-16-ene-20-cyclopropyl-23,24-E-ene-26,27-hexafluoro-cholecalciferol]	2300	0.04	0.547	0.3	10600	5800	effective
